Measurements published in patent US8747888B2, “Dermal delivery device with in situ seal” (Agile Therapeutics, Inc., priority 2007, dated 2014).

Test: Control of loss of volatile components: amounts in the AI patch after storage, by gas chromatography
Assay type: physicochemical
Conditions: 12 wks, device with in situ seal
Experimental: A transdermal hormone delivery device was prepared comprising an internal backing layer, an AI layer, and a release liner. […] The device also comprised an overlay comprising a polyurethane […] backing, which is able to absorb large amounts of the volatile excipients, DMSO and ethyl lactate, an acrylic PSA coated onto the polyurethane foam, and a PIB PSA coated on top of the acrylic PSA. […] The release liner was a Mylar polyester film coated with a fluoropolymer release coating. […] The devices were placed in a 25° C. or 40° C. oven. After 6 weeks and 12 weeks, devices were removed from the oven and the active section of each device was separated from the overlay. […] (12 weeks exposure to 40° C. is intended to simulate 18 months exposure to room temperature (25° C.)).

## CCCCCCCCCCCCOC(=O)C(C)O (centres unmarked) [Lauryl Lactate, lauryl lactate]
40° C.
  Amount in the AI patch: 9.20 wt %
Room temp
  Amount in the AI patch: 9.10 wt %
